According to PubChem BioAssay (NCI):
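GI50 is the concentration that inhibits growth by half. At the TGI there is no net growth.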

Assays:
Test in all cases: NCI-60 cell line screen, 384-well format
[1] = test system: HCT-15 colon
[2] = test system: HOP-62 NSCLC
[3] = test system: UACC-62 melanoma
[4] = test system: ACHN renal
[5] = test system: OVCAR-3 ovarian
[6] = test system: OVCAR-4 ovarian
[7] = test system: MALME-3M melanoma
[8] = test system: MDA-MB-435 melanoma
[9] = test system: M14 melanoma
[10] = test system: RPMI-8226 leukemia
[11] = test system: U251 glioblastoma
[12] = test system: HCT-116 colon
[13] = test system: UO-31 renal
[14] = test system: TK-10 renal
[15] = test system: MDA-MB-468 breast
[16] = test system: CCRF-CEM leukemia
[17] = test system: SK-OV-3 ovarian
[18] = test system: SK-MEL-28 melanoma
[19] = test system: SR leukemia
[20] = test system: NCI-H23 lung
[21] = test system: HL-60(TB) leukemia
[22] = test system: COLO 205 colon
[23] = test system: UACC-257 melanoma
[24] = test system: OVCAR-8 ovarian
[25] = test system: IGROV1 ovarian
[26] = test system: NCI-H226 lung
[27] = test system: NCI-H322M lung
[28] = test system: BT-549 breast
[29] = test system: T-47D breast
[30] = test system: A498 renal
[31] = test system: SF-295 CNS
[32] = test system: RXF 393 renal
[33] = test system: NCI/ADR-RES ovarian
[34] = test system: NCI-H522 lung
[35] = test system: SK-MEL-5 melanoma
[36] = test system: MCF7 breast
[37] = test system: SNB-75 CNS
[38] = test system: 786-0 renal
[39] = test system: DU-145 prostate
[40] = test system: SF-268 CNS
[41] = test system: K-562 leukemia
[42] = test system: SF-539 CNS
[43] = test system: SNB-19 CNS
[44] = test system: CAKI-1 renal
[45] = test system: HT29 colon
[46] = test system: PC-3 prostate
[47] = test system: SN12C renal
[48] = test system: HS 578T breast
[49] = test system: MOLT-4 leukemia
[50] = test system: SW-620 colon
[51] = test system: HCC-2998 colon
[52] = test system: NCI-H460 NSCLC
[53] = test system: A549 NSCLC
[54] = test system: HOP-92 NSCLC
[55] = test system: EKVX NSCLC
[56] = test system: KM12 colon
[57] = test system: MDA-MB-231 breast
[58] = test system: LOX IMVI melanoma

`CNc1ncc2cc(-c3cc(NC(=O)NCCC(C)(C)C)c(F)cc3C)c(C)nc2n1` was tested, and the GI50 [1] was 525 nM, the TGI [1] was 38600 nM and the GI50 [2] was 367 nM. The TGI [2] was 15900 nM, the GI50 [3] was less than 10 nM and the TGI [3] was 51.7 nM. For the same molecule, the GI50 [4] was 250 nM, the TGI [4] was 19100 nM and the GI50 [5] was 1230 nM. For the same molecule, the TGI [5] was 55800 nM, the GI50 [6] was 18300 nM and the TGI [6] was greater than 100000 nM. The GI50 [7] was less than 10 nM, the GI50 [8] was 33.6 nM and the TGI [8] was 27300 nM. For the same molecule, the GI50 [9] was less than 10 nM, the TGI [9] was 36.4 nM and the GI50 [10] was 162 nM. It also gave a TGI [10] of 585 nM, a GI50 [11] of 506 nM and a TGI [11] of 13000 nM. It also gave a GI50 [12] of 58.5 nM, a TGI [12] of 916 nM and a GI50 [13] of 210 nM. For the same molecule, the TGI [13] was 23600 nM, the GI50 [14] was 599 nM and the TGI [14] was 4670 nM. The GI50 [15] was 12800 nM, the TGI [15] was 35200 nM and the GI50 [16] was 495 nM. The TGI [16] was 18300 nM, the GI50 [17] was 303 nM and the TGI [17] was 4160 nM. For the same molecule, the GI50 [18] was less than 10 nM, the TGI [18] was 35.9 nM and the GI50 [19] was 181 nM. For the same molecule, the TGI [19] was 385 nM, the GI50 [20] was 47.2 nM and the TGI [20] was 443 nM. It also gave a GI50 [21] of 17.1 nM, a TGI [21] of 130 nM and a GI50 [22] of 14.4 nM. The TGI [22] was 543 nM, the GI50 [23] was 16.6 nM and the TGI [23] was 119 nM. The GI50 [24] was 489 nM, the TGI [24] was 48900 nM and the GI50 [25] was 157 nM. It also gave a TGI [25] of 1050 nM, a GI50 [26] of 299 nM and a TGI [26] of 15700 nM. For the same molecule, the GI50 [27] was 318 nM, the TGI [27] was 12900 nM and the GI50 [28] was 1260 nM. For the same molecule, the TGI [28] was 19900 nM, the GI50 [29] was 2400 nM and the TGI [29] was 37700 nM. The GI50 [30] was 294 nM, the TGI [30] was greater than 100000 nM and the GI50 [31] was 1200 nM. For the same molecule, the TGI [31] was greater than 100000 nM, the GI50 [32] was 440 nM and the TGI [32] was 10500 nM. It also gave a GI50 [33] of 3080 nM, a TGI [33] of 83700 nM and a GI50 [34] of 670 nM. The TGI [34] was 9380 nM, the GI50 [35] was 38.2 nM and the TGI [35] was 4200 nM. The GI50 [36] was 7040 nM, the TGI [36] was greater than 100000 nM and the GI50 [37] was 361 nM. The TGI [37] was 15400 nM, the GI50 [38] was 676 nM and the TGI [38] was 39100 nM. For the same molecule, the GI50 [39] was 652 nM, the TGI [39] was 32400 nM and the GI50 [40] was 1090 nM. It also gave a TGI [40] of 16100 nM, a GI50 [41] of 126 nM and a TGI [41] of 284 nM. It also gave a GI50 [42] of 1750 nM, a TGI [42] of 19200 nM and a GI50 [43] of 1550 nM. For the same molecule, the TGI [43] was 71000 nM, the GI50 [44] was 134 nM and the TGI [44] was 1230 nM. It also gave a GI50 [45] of 26.8 nM, a TGI [45] of 13100 nM and a GI50 [46] of 13300 nM. For the same molecule, the TGI [46] was greater than 100000 nM, the GI50 [47] was 173 nM and the TGI [47] was 889 nM. For the same molecule, the GI50 [48] was 354 nM, the TGI [48] was 7890 nM and the GI50 [49] was 360 nM. For the same molecule, the TGI [49] was 15400 nM, the GI50 [50] was 334 nM and the TGI [50] was 15400 nM. For the same molecule, the GI50 [51] was 127 nM, the TGI [51] was 11500 nM and the GI50 [52] was 302 nM. The TGI [52] was 13800 nM, the GI50 [53] was 711 nM and the TGI [53] was 15200 nM. The GI50 [54] was 166 nM, the TGI [54] was 409 nM and the GI50 [55] was 2090 nM. It also gave a TGI [55] of 82400 nM, a GI50 [56] of 501 nM and a TGI [56] of 38300 nM. It also gave a GI50 [57] of 47.9 nM, a TGI [57] of 397 nM and a GI50 [58] of 27.7 nM. The TGI [58] was 237 nM.
